Reference: US20260137701A1, “CHOLESTENOIC ACID (CA) AND A SULFATED DERIVATIVE THEREOF, 3[BETA]-SULFATE-5-CHOLESTENOIC ACID (CA3S), AS ENDOGENOUS EPIGENETIC REGULATORS” (priority 2022, published 2026)

Tests used:
[1] = target: recombinant DNMT1 (Homo sapiens, UniProt P26358); experiment: DNMT1 enzyme kinetic (activity) assay, 3H-SAM filter; format: biochemical; conditions: FIG. 1B, 0-0.0001 M
Protocol: (§1) The enzyme kinetic studies were carried out by Reaction Biology Company. For the DNMT1 activity assay, the substrate solution, 0.001 mg/ml Poly(dI-dC): Poly(dI-dC) in 50 mM Tris-HCl, pH 7.5, 50 mM NaCl, 5 mM EDTA, 5 mM DTT, 1 mM PMSF, 5% glycerol, 0.01% Brij™35, 1% DMSO was used. For the DNMT3a/3b activity assay, 0.0075 mg/ml Lambda DNA in 50 mM Tris-HCl, pH 7.5, 50 mM NaCl, 5 mM EDTA, 5 mM DTT, 1 mM PMSF, 5% glycerol, 1% DMSO, was used. The indicated DNMT1, DNMT3a and DNMT3b were added to the appropriate substrate solution and gently mixed. Amounts of CA ranging from 5.08E-09 to 0.0001 M in DMSO were added to the reaction mixture by using Acoustic Technology (Echo® 550, LabCyte Inc. Sunnyvale, CA). The mixtures were first incubated for 15 min, then ^3H-SAM was added to the reaction mixture to initiate the reaction, and the mixture was incubated for 60 min at 30° C. Following incubation, the reaction mixture was finally transferred to filter-paper for detection of radioactivity counts.

[2] = target: recombinant DNMT3a (Homo sapiens, UniProt Q9Y6K1); experiment: DNMT3a enzyme kinetic (activity) assay, 3H-SAM filter; format: biochemical; conditions: FIG. 1B, 0-0.0001 M
Protocol: as §1

[3] = target: recombinant DNMT3b (Homo sapiens, UniProt Q9UBC3); experiment: DNMT3b enzyme kinetic (activity) assay, 3H-SAM filter; format: biochemical; conditions: FIG. 1B, 0-0.0001 M
Protocol: as §1

[4] = system: Hep G2 cells; format: in vitro ADME, human
Description: Mitochondrial oxysterols, including cholestenoic acid (CA), 25-hydroxycholesterol (25HC), and 27-hydroxycholesterol (27HC), are potent regulators involved in important biological events such as lipid metabolism and inflammatory responses. However, their intracellular catabolic pathways have not been fully explored. In this study, we investigated the metabolic pathways of these oxysterols and their roles in the communication between hepatocytes and macrophages.

[5] = system: Human THP-1 macrophages; experiment: LPS induced inflammatory gene expression in macrophages, real-time RT-PCR; format: cell-based; conditions: 20 uM CA3S 30 min, then 2 ug/ml LPS 6 hours
Protocol: Human THP-1 were plated in 6 well plates with RPMI 1640 media (10% FBS) and induced to be macrophages by 100 nM PMA for 3 days at 37° C. in a […] incubator. The media was then changed to fresh RPMI 1640 (serum free), the cells were treated with 20 uM CA3S in PG for 30 min, and then the cells were stimulated with 2 ug/ml LPS for 6 hours. Total mRNA was extracted by the Promega SV total RNA isolation system (Promega, Madison, WI, USA) and 1 ug of RNA were converted to cDNA with a Reverse Transcription kit (Qiagen, Hilden, Germany). IL-1A, IL-1B, IL-6, IL-8, COX-2, NFKB and TNFα gene expressions were determined by Real-time RT-PCR that was performed using SYBR Green as the indicator on ABI 7500 Fast Real-Time PCR System (Applied Biosystems, Foster City, CA).

recombinant DNMT3a, sequence (Q9Y6K1 whole entry, looked up): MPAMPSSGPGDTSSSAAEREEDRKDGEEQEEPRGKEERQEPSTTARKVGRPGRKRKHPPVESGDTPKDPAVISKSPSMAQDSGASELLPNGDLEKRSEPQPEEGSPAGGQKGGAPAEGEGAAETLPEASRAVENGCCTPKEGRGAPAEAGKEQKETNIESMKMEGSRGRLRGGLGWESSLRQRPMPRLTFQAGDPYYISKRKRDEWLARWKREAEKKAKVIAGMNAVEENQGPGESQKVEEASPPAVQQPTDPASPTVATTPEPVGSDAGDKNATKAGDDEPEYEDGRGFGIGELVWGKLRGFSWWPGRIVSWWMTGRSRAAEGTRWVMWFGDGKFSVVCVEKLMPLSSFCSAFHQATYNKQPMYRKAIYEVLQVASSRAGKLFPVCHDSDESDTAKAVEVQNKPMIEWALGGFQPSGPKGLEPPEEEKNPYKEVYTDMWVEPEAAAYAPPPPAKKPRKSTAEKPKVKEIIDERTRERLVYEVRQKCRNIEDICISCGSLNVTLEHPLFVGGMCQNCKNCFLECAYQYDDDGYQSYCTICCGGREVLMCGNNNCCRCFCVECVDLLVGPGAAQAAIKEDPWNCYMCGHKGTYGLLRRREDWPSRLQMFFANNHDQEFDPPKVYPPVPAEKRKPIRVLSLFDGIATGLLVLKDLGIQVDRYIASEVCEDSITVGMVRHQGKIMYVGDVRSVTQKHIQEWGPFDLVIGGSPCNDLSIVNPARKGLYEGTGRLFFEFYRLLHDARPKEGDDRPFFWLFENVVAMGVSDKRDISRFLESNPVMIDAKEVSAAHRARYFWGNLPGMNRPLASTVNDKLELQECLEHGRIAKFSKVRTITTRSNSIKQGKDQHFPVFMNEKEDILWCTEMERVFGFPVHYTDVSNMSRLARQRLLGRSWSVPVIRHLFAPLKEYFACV
recombinant DNMT1, sequence (P26358 whole entry): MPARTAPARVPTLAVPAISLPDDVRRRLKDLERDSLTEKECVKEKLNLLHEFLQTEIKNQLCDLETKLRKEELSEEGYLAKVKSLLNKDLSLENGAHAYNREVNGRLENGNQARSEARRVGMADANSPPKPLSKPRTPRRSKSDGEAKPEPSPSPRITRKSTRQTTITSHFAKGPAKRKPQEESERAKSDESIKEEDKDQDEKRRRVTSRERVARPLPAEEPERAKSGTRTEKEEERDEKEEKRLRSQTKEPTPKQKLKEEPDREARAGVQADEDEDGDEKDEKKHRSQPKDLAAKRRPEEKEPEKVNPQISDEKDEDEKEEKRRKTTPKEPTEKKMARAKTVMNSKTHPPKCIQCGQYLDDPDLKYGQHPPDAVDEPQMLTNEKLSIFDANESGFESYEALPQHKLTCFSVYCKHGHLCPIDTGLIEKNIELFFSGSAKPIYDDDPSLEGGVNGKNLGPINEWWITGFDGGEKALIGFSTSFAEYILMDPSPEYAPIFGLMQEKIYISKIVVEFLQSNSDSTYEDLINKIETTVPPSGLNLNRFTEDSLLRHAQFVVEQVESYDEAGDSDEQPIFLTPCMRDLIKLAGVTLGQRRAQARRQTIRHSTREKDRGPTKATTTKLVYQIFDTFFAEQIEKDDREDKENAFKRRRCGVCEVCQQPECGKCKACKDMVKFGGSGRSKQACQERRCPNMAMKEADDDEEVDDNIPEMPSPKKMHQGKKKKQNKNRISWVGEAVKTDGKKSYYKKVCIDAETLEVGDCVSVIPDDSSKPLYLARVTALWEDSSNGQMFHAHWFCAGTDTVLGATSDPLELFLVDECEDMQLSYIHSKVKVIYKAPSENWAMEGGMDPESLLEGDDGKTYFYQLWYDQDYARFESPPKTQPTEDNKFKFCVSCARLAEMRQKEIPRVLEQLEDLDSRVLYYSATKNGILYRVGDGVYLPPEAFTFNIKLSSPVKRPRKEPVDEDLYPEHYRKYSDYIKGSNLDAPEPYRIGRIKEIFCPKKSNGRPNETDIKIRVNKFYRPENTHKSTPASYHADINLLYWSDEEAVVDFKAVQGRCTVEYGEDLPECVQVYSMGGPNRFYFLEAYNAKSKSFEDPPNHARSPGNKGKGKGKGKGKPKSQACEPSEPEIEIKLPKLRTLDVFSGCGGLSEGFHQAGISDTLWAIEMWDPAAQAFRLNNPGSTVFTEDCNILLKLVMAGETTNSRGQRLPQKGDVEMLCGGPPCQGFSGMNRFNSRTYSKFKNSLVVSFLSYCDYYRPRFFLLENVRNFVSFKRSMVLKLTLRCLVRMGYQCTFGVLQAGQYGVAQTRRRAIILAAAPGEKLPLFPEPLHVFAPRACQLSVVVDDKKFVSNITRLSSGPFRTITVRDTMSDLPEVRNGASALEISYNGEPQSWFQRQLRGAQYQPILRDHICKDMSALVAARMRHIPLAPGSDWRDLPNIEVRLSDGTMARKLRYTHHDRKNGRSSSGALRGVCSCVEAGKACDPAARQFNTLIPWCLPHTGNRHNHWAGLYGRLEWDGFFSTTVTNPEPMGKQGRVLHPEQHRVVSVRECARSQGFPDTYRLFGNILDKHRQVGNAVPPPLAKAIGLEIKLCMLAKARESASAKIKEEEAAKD

In the case of C[C@H](CCCC(C)(C)O)[C@H]1CC[C@H]2[C@@H]3CC=C4C[C@@H](O)CC[C@]4(C)[C@H]3CC[C@]12C [25HC, 25-hydroxycholesterol], the “effect on DNMT1 enzymatic activity” value [1] is reported as “potent activators”, the “effect on DNMT3a enzymatic activity” value [2] is reported as “do not have any effect” and the “effect on DNMT3b enzymatic activity” value [3] is reported as “do not have any effect”. The “part of formed 25HC3S released into the media” value [4] was “⅓”.

For C[C@@H](CO)CCC[C@@H](C)[C@H]1CC[C@H]2[C@@H]3CC=C4C[C@@H](O)CC[C@]4(C)[C@H]3CC[C@]12C [27HC, 27-hydroxycholesterol], the “effect on DNMT1 enzymatic activity” value [1] was “potent activators”, the “effect on DNMT3a enzymatic activity” value [2] was “do not have any effect” and the “effect on DNMT3b enzymatic activity” value [3] was “do not have any effect”. The “part of the compound converted to 27HC3S” value [4] was “⅓” and the “part of the compound converted to CA3S” value [4] was “⅔”.

For CC(CCC[C@@H](C)[C@H]1CCC2[C@@H]3CC=C4CC(OS(=O)(=O)O)CC[C@]4(C)C3CC[C@@]21C)C(=O)O (stereo partly drawn) [CA3S, 3 β-hydroxy-5-cholestenoic acid 3-sulfate], the “decrease of COX-2 gene expression” value [5] was 5 fold and the “decrease of IL-6 gene expression” value [5] was 6 fold.
